Measured values as given in US20250011300A1, “PIPERAZINYLSULFONYLARYL COMPOUNDS FOR TREATMENT OF BACTERIAL INFECTIONS” (Hoffmann-La Roche Inc., priority 2021, published 2025).
≈ marks a conversion by molar mass, not a printed value.

What was measured:
[1] = molecular target: Escherichia coli LpxH (UDP-2,3-diacylglucosamine hydrolase) (Escherichia coli (strain K12), UniProt P43341); test: 50% Inhibitory Concentration (IC50) to LpxH, UMP/CMP-Glo Glycosyltransferase Assay kit; type: biochemical
Method: Example 121: 50% Inhibitory Concentration (IC50) to UDP-2,3-diacylglucosamine hydrolase (LpxH)
The inhibitory potency of molecules to UDP-2,3-diacylglucosamine hydrolase (LpxH) was determined using the UMP/CMP-Glo™ Glycosyltransferase Assay kit. LpxH hydrolyzes the pyrophosphate bond of UDP-2,3-diacylglucosamine (UDP-DAG) to yield 2,3-diacylglucosamine 1-phosphate (lipid X) and UMP. The assay kit could quantify the UMP production by convert the UMP to ATP and generate light in a luciferase reaction. The compound's effect on the LpxH activity is detected by measuring the light using a luminometer (Envision).

[2] = system: E. coli (ATCC 25922); test: Minimal Inhibitory Concentration (MIC) assay, E. coli; type: cell-based; details: Escherichia coli, ATCC25922; E. coli ATCC 25922, CAMHB, 20 hours at 35° C.; read-out: MIC E. coli ATCC 25922
Method: (§1) Example 122: Minimal Inhibitory Concentration Protocol (MIC) Assay
(§2) The in vitro potency of compounds to inhibit E. coli (ATCC 25922) and K. pneumonia (ATCC 43816) growth was assessed by MIC (Minimal Inhibitory Concentration) assay. Samples were prepared from 10 mM DMSO stock solutions. After serial 2-fold dilution in DMSO in a master plate (Greiner, Cat No: 651201), 180 μL sterile distilled water was added to 20 μL each aliquot of the samples. Then 10 μL diluted compounds were transferred into a new assay plate (Costar, 3599).
(§3) The growth medium Cation-Adjusted Mueller Hinton Broth (CAMHB) was prepared by adding the 20 mg per liter CaCl2) and 20 mg per liter MgCl2 into the MHB medium (Jianglai Company, sterilized).
(§4) Vials of each of the test microorganisms were maintained frozen in the vapor phase of a liquid nitrogen freezer. The bacteria E. coli ATCC 25922 (KWIKSTIK, 0335K) and K. pneumonia ATCC 43816 were taken out from liquid nitrogen freezer, then thawed in room temperature, and diluted in the CAMHB medium to achieve a final inoculum of 5×10^5 CFU/mL. 90 μL CAMHB with bacteria was dispensed to the assay plate and pipetted 5 times.
(§5) Then the assay plates were incubated for 20 hours at 35° C. in ambient air. Following incubation, the MIC (μg/mL), the lowest concentration of drug that inhibits visible growth of the microorganism was read and recorded throw the microscope.

[3] = system: K. pneumonia (ATCC 43816); test: Minimal Inhibitory Concentration (MIC) assay, K. pneumonia; type: cell-based; details: Klebsiella pneumoniae; K. pneumoniae ATCC43816, CAMHB, 20 hours at 35° C.; read-out: MIC K. pneumoniae ATCC43816
Method: as §1, §2, §3, §4, §5

Escherichia coli LpxH (UDP-2,3-diacylglucosamine hydrolase), sequence (P43341 whole entry): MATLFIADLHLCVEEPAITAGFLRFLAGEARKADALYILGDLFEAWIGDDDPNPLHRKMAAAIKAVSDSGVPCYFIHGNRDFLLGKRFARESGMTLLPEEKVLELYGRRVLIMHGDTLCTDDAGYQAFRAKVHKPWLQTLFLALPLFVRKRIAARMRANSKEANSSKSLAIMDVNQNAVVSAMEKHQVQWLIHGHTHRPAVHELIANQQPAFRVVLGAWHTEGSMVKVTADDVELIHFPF

Compound | IC50 [1] [nM] | MIC [2] [µg/mL] | MIC [3] [µg/mL]
O=C1CC(N2C[C@@H](O)[C@@H](O)C2)CN1c1ccc(S(=O)(=O)N2CCN(c3cc(C(F)(F)F)cc(Cl)n3)CC2)cc1 (stereo partly drawn) [Example 48, 1-[4-[4-[6-Chloro-4-(trifluoromethyl)-2-pyridyl]piperazin-1-yl]sulfonylphenyl]-4-[(3S,4R)-3,4-dihydroxypyrrolidin-1-yl]pyrrolidin-2-one] | 6.78 | 1.84 (≈ 3.12 µM) | 3.69 (≈ 6.25 µM)
N[C@@H]1CC(=O)N(c2ccc(S(=O)(=O)N3CCN(c4cc(C(F)(F)[C@@H]5CNCCO5)cc(Cl)n4)CC3)cc2)C1 [Example 104] | 8.76 | 1.01 (≈ 1.77 µM) | 2.01 (≈ 3.52 µM)
NC1CC(=O)N(c2ccc(S(=O)(=O)N3CCN(c4cc(C(F)(F)c5ccccc5)nc(Cl)n4)CC3)cc2)C1 (stereo not shown) [Example 77, 4-Amino-1-[4-[4-[2-chloro-6-[difluoro(phenyl)methyl]pyrimidin-4-yl]piperazin-1-yl]sulfonylphenyl]pyrrolidin-2-one] | 7.1 | 0.44 (≈ 0.781 µM) | 0.44 (≈ 0.781 µM)
O=C1CC(N2CCN[C@H](CO)C2)CN1c1ccc(S(=O)(=O)N2CCN(c3cc(C(F)(F)F)cc(Cl)n3)CC2)cc1 (stereo partly drawn) [Example 53, 1-[4-[4-[6-Chloro-4-(trifluoromethyl)-2-pyridyl]piperazin-1-yl]sulfonylphenyl]-4-[(3S)-3-(hydroxymethyl)piperazin-1-yl]pyrrolidin-2-one] | 6.63 | 2 (≈ 3.32 µM) | 3 (≈ 4.97 µM)
O=C1OC2C(O)C(CO)OC2N1c1ccc(S(=O)(=O)N2CCN(c3cc(C(F)(F)F)cc(Cl)n3)CC2)cc1 (stereo not shown) [Example 21, 3-[4-[4-[6-Chloro-4-(trifluoromethyl)-2-pyridyl]piperazin-1-yl]sulfonylphenyl]-6-hydroxy-5-(hydroxymethyl)-3a,5,6,6a-tetrahydrofuro[2,3-d]oxazol-2-one] | 10.4 | 0.91 (≈ 1.57 µM) | 1.81 (≈ 3.13 µM)
NC1CN(CC2CN(c3ccc(S(=O)(=O)N4CCN(c5cc(C(F)(F)F)cc(Cl)n5)CC4)cc3)C(=O)O2)C1 (stereo not shown) [Example 31, 5-[(3-Aminoazetidin-1-yl)methyl]-3-[4-[4-[6-chloro-4-(trifluoromethyl)-2-pyridyl]piperazin-1-yl]sulfonylphenyl]oxazolidin-2-one] | 6.96 | 2.15 (≈ 3.74 µM) | 4.31 (≈ 7.5 µM)
NC1CC(=O)N(c2ccc(S(=O)(=O)N3CCN(c4cc(C(F)(F)c5cnccn5)cc(Cl)n4)CC3)cc2)C1 (stereo not shown) [Example 93, 4-Amino-1-[4-[4-[6-chloro-4-[difluoro(pyrazin-2-yl)methyl]-2-pyridyl]piperazin-1-yl]sulfonylphenyl]pyrrolidin-2-one] | 12.4 | 1.76 (≈ 3.12 µM) | 1.76 (≈ 3.12 µM)
O=C1OC(CNC2CCNC2)CN1c1ccc(S(=O)(=O)N2CCN(c3cc(C(F)(F)F)cc(Cl)n3)CC2)cc1 (stereo not shown) [Example 34, 3-[4-[4-[6-Chloro-4-(trifluoromethyl)-2-pyridyl]piperazin-1-yl]sulfonylphenyl]-5-[(pyrrolidin-3-ylamino)methyl]oxazolidin-2-one] | 27.2 | 4.39 (≈ 7.45 µM) | 4.39 (≈ 7.45 µM)
N[C@@H]1CN(C2CC(=O)N(c3ccc(S(=O)(=O)N4CCN(c5cc(C(F)(F)F)cc(Cl)n5)CC4)cc3)C2)CC[C@H]1O (stereo partly drawn) [Example 57, 4-((3R,4R)-3-amino-4-hydroxypiperidin-1-yl)-1-(4-((4-(6-chloro-4-(trifluoromethyl)pyridin-2-yl)piperazin-1-yl)sulfonyl)phenyl)pyrrolidin-2-one] | 34.8 | 2 (≈ 3.32 µM) | 2 (≈ 3.32 µM)
NC1CC(=O)N(c2ccc(S(=O)(=O)N3CCN(c4cc(C(F)(F)C5CCOCC5)cc(Cl)n4)CC3)cc2)C1 (stereo not shown) [Example 95, 4-Amino-1-[4-[4-[6-chloro-4-[difluoro(tetrahydropyran-4-yl)methyl]-2-pyridyl]piperazin-1-yl]sulfonylphenyl]pyrrolidin-2-one] | 57.9 | 0.89 (≈ 1.56 µM) | 0.89 (≈ 1.56 µM)
O=C1OC2(CNC2)CN1c1ccc(S(=O)(=O)N2CCN(c3cc(C(F)(F)F)cc(Cl)n3)CC2)cc1 [Example 13] | 128 | 0.83 (≈ 1.56 µM) | 2.49 (≈ 4.68 µM)
O=C1O[C@H]2CNC[C@H]2N1c1ccc(S(=O)(=O)N2CCN(c3cc(C(F)(F)F)cc(Cl)n3)CC2)cc1 [Example 15, (3aR,6aS)-3-[4-[4-[6-chloro-4-(trifluoromethyl)-2-pyridyl]piperazin-1-yl]sulfonylphenyl]-4,5,6,6a-tetrahydro-3aH-pyrrolo[3,4-d]oxazol-2-one] | 95.9 | 1.01 (≈ 1.9 µM) | 2.02 (≈ 3.8 µM)
Cc1nc(N2CCN(S(=O)(=O)c3ccc(N4C[C@H](N)CC4=O)cc3)CC2)cc(C(F)(F)c2ccccc2)n1 [Example 83, (4R)-4-Amino-1-[4-[4-[6-[difluoro(phenyl)methyl]-2-methyl-pyrimidin-4-yl]piperazin-1-yl]sulfonylphenyl]pyrrolidin-2-one] | 3.69 | 1.7 (≈ 3.13 µM) | 1.7 (≈ 3.13 µM)
O=C1OC(CN2C[C@@H](O)[C@@H](O)C2)CN1c1ccc(S(=O)(=O)N2CCN(c3cc(C(F)(F)F)cc(Cl)n3)CC2)cc1 (stereo partly drawn) [Example 30, 3-[4-[4-[6-Chloro-4-(trifluoromethyl)-2-pyridyl]piperazin-1-yl]sulfonylphenyl]-5-[[cis-3,4-dihydroxypyrrolidin-1-yl]methyl]oxazolidin-2-one] | 14.9 | 2.01 (≈ 3.32 µM) | 4.02 (≈ 6.63 µM)
O=C1O[C@H]2CCNC[C@H]2N1c1ccc(S(=O)(=O)N2CCN(c3cc(C(F)(F)F)cc(Cl)n3)CC2)cc1 [Example 16, (3aR,7aS)-3-[4-[4-[6-chloro-4-(trifluoromethyl)-2-pyridyl]piperazin-1-yl]sulfonylphenyl]-3a,4,5,6,7,7a-hexahydrooxazolo[4,5-c]pyridin-2-one] | 38.5 | 1.03 (≈ 1.89 µM) | 1.03 (≈ 1.89 µM)
CN(C)C1CN(CC2CC(=O)N(c3ccc(S(=O)(=O)N4CCN(c5cc(C(F)(F)F)cc(Cl)n5)CC4)cc3)C2)C1 (stereo not shown) [Example 42, 1-[4-[4-[6-Chloro-4-(trifluoromethyl)-2-pyridyl]piperazin-1-yl]sulfonylphenyl]-4-[[3-(dimethylamino)azetidin-1-yl]methyl]pyrrolidin-2-one] | 15 | 10.4 (≈ 17.2 µM) | 10.4 (≈ 17.2 µM)
NC1CC(=O)N(c2ccc(S(=O)(=O)N3CCN(c4cc(S(=O)(=O)C5CC5)cc(Cl)n4)CC3)cc2)C1 (stereo not shown) [Example 69, 4-Amino-1-[4-[4-(6-chloro-4-cyclopropylsulfonyl-2-pyridyl)piperazin-1-yl]sulfonylphenyl]pyrrolidin-2-one] | 746 | 13.5 (≈ 25 µM) | 6.75 (≈ 12.5 µM)
NC1CN(C2CC(=O)N(c3ccc(S(=O)(=O)N4CCN(c5cc(C(F)(F)F)cc(Cl)n5)CC4)cc3)C2)C1 (stereo not shown) [Example 51, 4-(3-Aminoazetidin-1-yl)-1-[4-[4-[6-chloro-4-(trifluoromethyl)-2-pyridyl]piperazin-1-yl]sulfonylphenyl]pyrrolidin-2-one] | 53.7 | 3.78 (≈ 6.76 µM) | 15.1 (≈ 27.1 µM)
O=C1CC(N2C[C@@H]3C[C@H]2CN3)CN1c1ccc(S(=O)(=O)N2CCN(c3cc(C(F)(F)F)cc(Cl)n3)CC2)cc1 (stereo partly drawn) [Example 55, 1-[4-[4-[6-Chloro-4-(trifluoromethyl)-2-pyridyl]piperazin-1-yl]sulfonylphenyl]-4-[(1S,4S)-2,5-diazabicyclo[2.2.1]heptan-2-yl]pyrrolidin-2-one] | 51.3 | 3.88 (≈ 6.63 µM) | 7.77 (≈ 13.3 µM)
N[C@@H]1CC(=O)N(c2ccc(S(=O)(=O)N3CCN(c4cc(C(F)(F)[C@H]5C[C@H](O)C5)cc(Cl)n4)CC3)cc2)C1 [Example 119, (4R)-4-amino-1-[4-[4-[6-chloro-4-[trans-difluoro-(3-hydroxycyclobutyl)methyl]-2-pyridyl]piperazin-1-yl]sulfonylphenyl]pyrrolidin-2-one] | – | 0.46 (≈ 0.827 µM) | 0.46 (≈ 0.827 µM)
Cc1cncc(C(F)(F)c2cc(Cl)nc(N3CCN(S(=O)(=O)c4ccc(N5C[C@H](N)CC5=O)cc4)CC3)c2)n1 [Example 112, (4R)-4-amino-1-[4-[4-[6-chloro-4-[difluoro-(6-methylpyrazin-2-yl)methyl]-2-pyridyl]piperazin-1-yl]sulfonylphenyl]pyrrolidin-2-one] | – | 0.45 (≈ 0.778 µM) | 0.45 (≈ 0.778 µM)
